The values below come from ChEMBL document CHEMBL4190314, “Quinoline hybrids and their antiplasmodial and antimalarial activities” (Eur J Med Chem, 2017).

The test system of series [1] is Plasmodium falciparum. The series is described as follows: Antimalarial activity against chloroquine-resistant Plasmodium falciparum FCR-3/Gambia infected in human type A+ erythrocytes after 48 hrs by [3H]-hypoxanthine incorporation assay. Format: functional, organism-based.
For series [2], the system named is Plasmodium falciparum. The series is described as follows: Antimalarial activity against chloroquine-resistant Plasmodium falciparum FcB1/Columbia infected in human type A+ erythrocytes after 48 hrs by [3H]-hypoxanthine incorporation assay. Format: functional, organism-based.
The subject of series [3] is Plasmodium falciparum. Briefly: Antimalarial activity against chloroquine-sensitive Plasmodium falciparum F32 infected in human type A+ erythrocytes after 48 hrs by [3H]-hypoxanthine incorporation assay. Type of series: functional, organism-based.
Series [4] concerns Plasmodium falciparum. Briefly: Antimalarial activity against chloroquine-sensitive Plasmodium falciparum D6 infected in human type A+ erythrocytes after 48 hrs by [3H]-hypoxanthine incorporation assay. Format: functional, organism-based.
For series [5], the system named is Plasmodium falciparum. Briefly: Antimalarial activity against chloroquine-resistant Plasmodium falciparum Palo Alto/Ouganda infected in human type A+ erythrocytes after 48 hrs by [3H]-hypoxanthine incorporation assay. Format: functional, organism-based.
Series [6] deals with Plasmodium falciparum. Briefly: Antimalarial activity against chloroquine-resistant Plasmodium falciparum FcM29 infected in human type A+ erythrocytes after 48 hrs by [3H]-hypoxanthine incorporation assay. Type of series: functional, organism-based.
In series [7] the test system is Plasmodium falciparum. Briefly: Antimalarial activity against chloroquine-resistant Plasmodium falciparum W2 infected in human red blood cells assessed as reduction in parasitic LDH activity by Malstat reagent based spectrophotometric method. Type of series: functional, organism-based.
In series [8] the test system is Plasmodium falciparum. The series is described as follows: Antimalarial activity against chloroquine-sensitive Plasmodium falciparum D6 infected in human red blood cells assessed as reduction in parasitic LDH activity by Malstat reagent based spectrophotometric method. Format: functional, organism-based.
Series [9] concerns Plasmodium falciparum. The series is described as follows: Antimalarial activity against chloroquine-sensitive Plasmodium falciparum 3D7 infected in human type A+ erythrocytes after 24 hrs by [3H]-hypoxanthine incorporation assay. Type of series: functional, organism-based.
Series [10] relates to Plasmodium falciparum. The series is described as follows: Antimalarial activity against chloroquine-resistant Plasmodium falciparum W2 infected in human type A+ erythrocytes after 24 hrs by [3H]-hypoxanthine incorporation assay. Format: functional, organism-based.
Series [11] concerns Plasmodium falciparum. The series is described as follows: Antimalarial activity against multiple drug-resistant Plasmodium falciparum C235. Format: functional.
The nature of series [12]: Elimination half life in FVB mouse plasma at 5 mg/kg, iv administered as single dose. Type of series: ADME, organism-based. The settings on record: read-out: beta t1/2 (converted).
For series [13], the system named is Plasmodium falciparum. Briefly: Antimalarial activity against […] Plasmodium falciparum D6. Format: functional.
The nature of series [14]: Drug uptake in FVB mouse brain at 5 mg/kg, iv administered as single dose by UPLC-MS/MS based equilibrium dialysis method. The settings on record: in vivo. Type of series: ADME, organism-based. (In general: Equilibrium dialysis compares concentrations on both sides of a semipermeable membrane.)
Series [15] in a line: Permeability from apical to basolateral side in MDCK cells. Type of series: ADME, cell-based, Canis lupus familiaris. The settings on record: dog, read-out: permeability.
The test system of series [16] is Plasmodium falciparum. Briefly: Antimalarial activity against chloroquine-resistant Plasmodium falciparum FcB1 infected in human red blood cells after 48 hrs by [3H]-hypoxanthine incorporation assay. Format: functional, organism-based.
For series [17], the system named is Plasmodium falciparum. Briefly: Antimalarial activity against chloroquine-resistant Plasmodium falciparum FcM29 infected in human red blood cells after 48 hrs by [3H]-hypoxanthine incorporation assay. Type of series: functional, organism-based.
Series [18] has as its system Plasmodium falciparum. The series is described as follows: Antimalarial activity against chloroquine-sensitive Plasmodium falciparum Nigerian infected in human red blood cells after 48 hrs by [3H]-hypoxanthine incorporation assay. Format: functional, organism-based.
The test system of series [19] is Plasmodium falciparum. Briefly: Antimalarial activity against chloroquine-resistant Plasmodium falciparum W2MEF infected in human type A+ erythrocytes after 48 hrs by [3H]-hypoxanthine incorporation assay. Format: functional, organism-based.
For series [20], the system named is Plasmodium falciparum. The series is described as follows: Antimalarial activity against chloroquine-resistant Plasmodium falciparum ItG2F6 infected in human type A+ erythrocytes after 48 hrs by [3H]-hypoxanthine incorporation assay. Type of series: functional, organism-based.
Series [21] has as its system Plasmodium falciparum. Briefly: Antimalarial activity against chloroquine-sensitive Plasmodium falciparum NF54 infected in human type A+ erythrocytes after 48 hrs by [3H]-hypoxanthine incorporation assay. Type of series: functional, organism-based.
Series [22] has as its system Plasmodium falciparum. The series is described as follows: Antimalarial activity against chloroquine-sensitive Plasmodium falciparum HB3 infected in human type A+ erythrocytes after 48 hrs by [3H]-hypoxanthine incorporation assay. Type of series: functional, organism-based.
The test system of series [23] is Plasmodium falciparum. Briefly: Antimalarial activity against chloroquine-sensitive Plasmodium falciparum RF MEF3 infected in human type A+ erythrocytes after 48 hrs by [3H]-hypoxanthine incorporation assay. Type of series: functional, organism-based.
Series [24] has as its system Plasmodium falciparum. The series is described as follows: Antimalarial activity against chloroquine-resistant Plasmodium falciparum W2 infected in human type A+ erythrocytes after 48 hrs by [3H]-hypoxanthine incorporation assay. Format: functional, organism-based.
Series [25] deals with Plasmodium falciparum. Briefly: Antimalarial activity against chloroquine-resistant Plasmodium falciparum K1 infected in human type A+ erythrocytes after 48 hrs by [3H]-hypoxanthine incorporation assay. Type of series: functional, organism-based.
For series [26], the system named is Plasmodium falciparum. The series is described as follows: Antimalarial activity against chloroquine-resistant Plasmodium falciparum RFCR-3 infected in human type A+ erythrocytes after 48 hrs by [3H]-hypoxanthine incorporation assay. Type of series: functional, organism-based.
Series [27] deals with Plasmodium falciparum. Briefly: Antimalarial activity against chloroquine-resistant Plasmodium falciparum 7G8 infected in human type A+ erythrocytes after 48 hrs by [3H]-hypoxanthine incorporation assay. Type of series: functional, organism-based.
In series [28] the test system is Plasmodium falciparum. Briefly: Antimalarial activity against chloroquine-resistant Plasmodium falciparum T9/94 infected in human type A+ erythrocytes after 48 hrs by [3H]-hypoxanthine incorporation assay. Type of series: functional, organism-based.
Series [29] concerns Plasmodium falciparum. Briefly: Antimalarial activity against chloroquine-sensitive Plasmodium falciparum Ro73 infected in human type A+ erythrocytes after 48 hrs by [3H]-hypoxanthine incorporation assay. Format: functional, organism-based.
The test system of series [30] is Plasmodium falciparum. The series is described as follows: Antimalarial activity against chloroquine-resistant Plasmodium falciparum INDO infected in human type A+ erythrocytes after 48 hrs by [3H]-hypoxanthine incorporation assay. Type of series: functional, organism-based.
The test system of series [31] is Plasmodium falciparum. Briefly: Antimalarial activity against chloroquine-sensitive Plasmodium falciparum FCH-5-C2 infected in human type A+ erythrocytes after 48 hrs by [3H]-hypoxanthine incorporation assay. Type of series: functional, organism-based.
The test system of series [32] is Plasmodium falciparum. The series is described as follows: microbe, parasite or virus in culture. The settings on record: D10, 24 h.
Description: Antimalarial activity against chloroquine-sensitive Plasmodium falciparum D10 after 24 hrs by [G-3H]-hypoxanthine incorporation assay
Series [33] deals with Plasmodium falciparum. The series is described as follows: microbe, parasite or virus in culture. The settings on record: K1, 24 h.
Description: Antimalarial activity against chloroquine-resistant Plasmodium falciparum K1 after 24 hrs by [G-3H]-hypoxanthine incorporation assay
Series [34] deals with Plasmodium falciparum. The series is described as follows: Antimalarial activity against chloroquine-sensitive Plasmodium falciparum 3D7. The settings on record: 3D7, read-out: ED50.
Series [35] has as its system Plasmodium falciparum. Briefly: Antimalarial activity against chloroquine-resistant Plasmodium falciparum K1. Format: functional. The note with it: read-out: ED50 (the source's name).

One may read the IC50 as the midpoint of a concentration-inhibition curve. What is called IC90 is the concentration needed for an effect of 90%. A low value points to an effect from little substance.

SMILES strings stand for the structures. Values after ≈ are worked out from the molar mass of the structure shown.

Regarding `CC1(C)COC2(CCC(N[C@H]3CC[C@H](Nc4ccnc5cc(Cl)ccc45)CC3)CC2)OO1` (some centres undefined), the IC50 with Plasmodium falciparum [1], with Plasmodium falciparum [2], in the series on Plasmodium falciparum [3], in the series on Plasmodium falciparum [4], in the series with Plasmodium falciparum [5] and in the series on Plasmodium falciparum [6] was 7 to 24 nM each time.

Turning to `Cc1cccc(C)c1Nc1nc(OCc2cn(CCNc3ccnc4cc(Cl)ccc34)nn2)nc(N(C)C)n1`, the IC50 with Plasmodium falciparum [7] is 730 nM; with Plasmodium falciparum [8], 580 nM.

In the case of `O[C@@]12OOC3(C=C1C[C@@H]1C=C[C@H]2C1)CCN(c1ccnc2cc(Cl)ccc12)CC3`, the IC50 with Plasmodium falciparum [9] and with Plasmodium falciparum [10] was 6050 to 6750 nM throughout.

`CN(CCNCC(O)c1cc(C(F)(F)F)nc2c(C(F)(F)F)cccc12)CC(O)c1cc(C(F)(F)F)nc2c(C(F)(F)F)cccc12` (centres undefined): the IC90 in the series with Plasmodium falciparum [11] and in the series with Plasmodium falciparum [13] was 0.022 to 0.08 µg/mL (≈ 0.032 to 0.116 µM) throughout. For the same molecule, in [12], the half-life was 13 h. This molecule also had a Drug uptake in series [14] of 97 ng/g. Besides, the Papp A→B in series [15] was determined as 0.14 ×10⁻⁶ cm/s.

As for `Fc1ccc(C(/C=C/C=C(\c2ccc(F)cc2)N2CCN(c3ccnc4cc(Cl)ccc34)CC2)=[N+]2CCN(c3ccnc4cc(Cl)ccc34)CC2)cc1`, the IC50 came out at 444 nM in the series on Plasmodium falciparum [16], 468 nM in the series on Plasmodium falciparum [17] and 350 nM with Plasmodium falciparum [18].

For the molecule `COc1ccc(OCc2cn(CCNc3ccnc4cc(Cl)ccc34)nn2)cc1`, the results for the IC50 in the series with Plasmodium falciparum [7] and in the series on Plasmodium falciparum [8] were 1120 nM and 650 nM, respectively.

On to `CO[C@@]12OOC3(C=C1C[C@@H]1C=C[C@H]2C1)CCN(c1ccnc2cc(Cl)ccc12)CC3`, for which the IC50 with Plasmodium falciparum [9] and in the series with Plasmodium falciparum [10] was 185 to 240 nM in each case.

Turning to `O[C@@]12OOC3(C=C1C[C@@H]1CC[C@H]2C1)CCN(c1ccnc2cc(Cl)ccc12)CC3`, the IC50 in the series on Plasmodium falciparum [9] and in the series with Plasmodium falciparum [10] was 1400 to 2450 nM each time.

On to `Clc1ccc2c(N[C@@H]3CCCC[C@H]3Nc3ccnc4cc(Cl)ccc34)ccnc2c1`, for which the IC50 is 4 to 13 nM with Plasmodium falciparum [19]; 4 to 13 nM with Plasmodium falciparum [20]; 6 nM in the series on Plasmodium falciparum [21]; 4 nM in the series on Plasmodium falciparum [22]; 4 to 13 nM in the series on Plasmodium falciparum [23]; 10 nM in the series on Plasmodium falciparum [24]. Moreover, the IC50 was 13 nM in the series on Plasmodium falciparum [25]; 4 to 13 nM in the series on Plasmodium falciparum [26]; 4 to 13 nM in the series on Plasmodium falciparum [27]; 4 to 13 nM in the series with Plasmodium falciparum [28]; 4 to 13 nM with Plasmodium falciparum [29]; 4 to 13 nM in the series with Plasmodium falciparum [30]. The same molecule gave an IC50 in the series with Plasmodium falciparum [31] of 4 to 13 nM.

Take `CCN(CC)CCCC(C)Nc1cc(CCCCCCCCCCc2cc(NC(C)CCCN(CC)CC)c3ccccc3n2)nc2ccccc12` (centres undefined): the IC50 in the series on Plasmodium falciparum [32] worked out at 43 nM.

For `O[C@@H](c1cc(C(F)(F)F)nc2c(C(F)(F)F)cccc12)[C@H]1CCCCN1` [(S,R)-MEFLOQUINE], the IC50 amounted to 90 nM with Plasmodium falciparum [32] and 300 nM in the series on Plasmodium falciparum [33]. For the same molecule, in series [12], the half-life is 23 h. This molecule displayed a Drug uptake in series [14] of 1600 ng/g.

Turning to `CCN(CC)CCCC(C)Nc1ccnc2cc(Cl)ccc12` (centres undefined) [CHLOROQUINE], the figures for the EC50 in the series with Plasmodium falciparum [34] and in the series on Plasmodium falciparum [35] were 20 nM and 1030 nM, respectively.
